Tests used:
[1] = DRUGMATRIX: Phosphodiesterase PDE4 enzyme inhibition (substrate: [3H]cAMP + cAMP); details: u-937; Not Active = under 50% inhibition at 10 µM
[2] = biological target: T1, Adenosine receptor A3 (Homo sapiens, UniProt P0DMS8); type: cell membranes, CHO-K1, Membrane; details: cho-k1;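 note: radioligand binding assay with AB-MECA serving as the labeled ligand; in other assays of this panel Not Active means under 50% inhibition at 10 µM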
T1 sequence (P0DMS8 whole entry): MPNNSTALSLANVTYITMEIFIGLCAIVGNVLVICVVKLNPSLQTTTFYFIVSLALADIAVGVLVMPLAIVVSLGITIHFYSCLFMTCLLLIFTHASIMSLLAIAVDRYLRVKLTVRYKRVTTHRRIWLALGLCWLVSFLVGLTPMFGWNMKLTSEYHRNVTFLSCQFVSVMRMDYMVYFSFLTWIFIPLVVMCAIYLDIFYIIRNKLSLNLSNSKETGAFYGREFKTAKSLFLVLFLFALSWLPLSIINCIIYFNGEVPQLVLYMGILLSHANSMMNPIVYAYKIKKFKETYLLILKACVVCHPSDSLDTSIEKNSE

[3] = DRUGMATRIX: Platelet-Derived Growth Factor (PDGF) radioligand binding (ligand: [125I] PDGF); type: cell-based; details: nih3t3; Not Active = under 50% inhibition at 10 µM
[4] = biological target: Sodium-dependent dopamine transporter (Homo sapiens, UniProt Q01959); test: DRUGMATRIX: Dopamine Transporter radioligand binding (ligand: [125I] RTI-55); type: cell membranes, CHO-K1, Membrane; details: cho-k1; Not Active = under 50% inhibition at 10 µM
Sodium-dependent dopamine transporter, sequence (Q01959 whole entry): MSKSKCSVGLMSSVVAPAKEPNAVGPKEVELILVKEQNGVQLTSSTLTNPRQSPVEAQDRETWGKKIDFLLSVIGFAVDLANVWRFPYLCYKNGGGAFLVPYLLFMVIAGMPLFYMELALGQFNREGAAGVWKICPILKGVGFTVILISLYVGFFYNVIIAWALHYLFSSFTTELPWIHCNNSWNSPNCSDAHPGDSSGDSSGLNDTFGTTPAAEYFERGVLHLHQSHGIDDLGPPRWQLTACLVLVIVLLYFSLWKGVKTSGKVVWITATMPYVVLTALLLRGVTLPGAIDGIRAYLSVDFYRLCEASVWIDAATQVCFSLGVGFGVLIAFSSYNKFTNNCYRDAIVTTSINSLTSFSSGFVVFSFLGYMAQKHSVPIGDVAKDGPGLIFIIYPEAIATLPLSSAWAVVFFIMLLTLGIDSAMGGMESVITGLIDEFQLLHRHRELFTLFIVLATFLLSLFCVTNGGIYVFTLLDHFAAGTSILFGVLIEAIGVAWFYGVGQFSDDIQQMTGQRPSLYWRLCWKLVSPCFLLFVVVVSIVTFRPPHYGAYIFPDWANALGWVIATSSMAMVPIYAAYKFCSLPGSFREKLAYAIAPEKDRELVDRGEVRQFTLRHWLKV

[5] = biological target: 5-hydroxytryptamine receptor 2B (Homo sapiens, UniProt P41595); type: cell membranes, CHO-K1, Membrane; details: cho-k1; note: in other assays of this panel Not Active means under 50% inhibition at 10 µM
5-hydroxytryptamine receptor 2B, sequence (P41595 whole entry): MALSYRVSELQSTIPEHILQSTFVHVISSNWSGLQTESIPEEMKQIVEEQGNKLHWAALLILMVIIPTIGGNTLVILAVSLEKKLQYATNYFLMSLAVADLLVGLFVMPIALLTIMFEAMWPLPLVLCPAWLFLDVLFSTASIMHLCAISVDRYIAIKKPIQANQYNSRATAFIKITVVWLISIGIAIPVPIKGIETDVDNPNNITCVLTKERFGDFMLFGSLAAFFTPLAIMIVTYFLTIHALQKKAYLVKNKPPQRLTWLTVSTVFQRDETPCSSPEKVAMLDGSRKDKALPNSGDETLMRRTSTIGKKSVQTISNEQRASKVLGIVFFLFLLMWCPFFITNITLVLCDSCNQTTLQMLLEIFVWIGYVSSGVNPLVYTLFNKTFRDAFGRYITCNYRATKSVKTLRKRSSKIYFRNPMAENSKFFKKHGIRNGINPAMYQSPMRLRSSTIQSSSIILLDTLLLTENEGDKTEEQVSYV

[6] = DRUGMATRIX: GABAA, Chloride Channel, TBOB radioligand binding (ligand: [3H] TBOB); type: cell membranes, Rattus norvegicus, Wistar, Cerebral cortex, Membrane; details: Not Active = under 50% inhibition at 10 µM

INSULIN HUMAN
Not Active: IC50 [1] | Ki [1] | IC50 [2] | Ki [2] | IC50 [3] | Ki [3] | IC50 [4] | Ki [4] | IC50 [5] | Ki [5] | IC50 [6] | Ki [6]

POLYVINYL ALCOHOL
Not Active: IC50 [1] | Ki [1] | IC50 [2] | Ki [2] | IC50 [3] | Ki [3] | IC50 [4] | Ki [4] | IC50 [5] | Ki [5] | IC50 [6] | Ki [6]

Reference: ChEMBL document CHEMBL1909046, “DrugMatrix in vitro pharmacology data”
